{"source": "paper PMC10289985", "about": "“Brigatinib pharmacokinetics in patients with chronic hepatic impairment” (Investigational New Drugs, 2023)", "origin": "cited, not measured here", "key": {"[1]": {"design": "method as in PMID 30052269", "conditions": "cited from earlier work"}, "[2]": {"design": "method as in ref 26 = [26]; 26. Zykadia [package insert] (2021) Novartis Pharmaceuticals Corporation, East Hanover, NJ", "conditions": "cited from earlier work"}, "[3]": {"design": "method as in PMID 29468455", "conditions": "patients with moderate or severe hepatic impairment; cited from earlier work"}}, "note": "Where two headings read alike, the source gives them in different places."}
{"smiles": "CCc1cc2c(cc1N1CCC(N3CCOCC3)CC1)C(C)(C)c1[nH]c3cc(C#N)ccc3c1C2=O", "note": "[alectinib]", "values": [{"measurement": "increase of combined systemic exposures (AUC) of alectinib and its M4 metabolite", "setting": "[1]; moderate hepatic impairment vs matched healthy participants", "value": 36, "unit": "%"}, {"measurement": "increase of combined systemic exposures (AUC) of alectinib and its M4 metabolite", "setting": "[1]; severe hepatic impairment vs matched healthy participants", "value": 76, "unit": "%"}]}
{"smiles": "Cc1cc(Nc2ncc(Cl)c(Nc3ccccc3S(=O)(=O)C(C)C)n2)c(OC(C)C)cc1C1CCNCC1", "note": "[ceritinib]", "values": [{"measurement": "systemic exposures compared with healthy participants", "setting": "[2]; mild and moderate hepatic impairment", "value": "similar"}, {"measurement": "increase of unbound systemic exposure (AUC)", "setting": "[2]; severe hepatic impairment", "value": 108, "unit": "%"}]}
{"smiles": "C[C@@H](Oc1cc(-c2cnn(C3CCNCC3)c2)cnc1N)c1c(Cl)ccc(F)c1Cl", "note": "[crizotinib]", "values": [{"measurement": "change of concentrations in hepatic impairment", "setting": "[3]", "value": "increased"}]}
